# Results reported in ChEMBL document CHEMBL1201862, “PubChem BioAssay data set” (2004).
# Activity calls are given as the source filed them.
# Columns and labels:
# [1] = target: T1, Cytochrome P450 3A4 (Homo sapiens, UniProt P08684); settings: Potency
# [2] = target: Cytochrome P450 2C19 (Homo sapiens, UniProt P33261); assay: Cytochrome panel assay with activity outcomes. Panel member name: p450-cyp2c19 Compounds with AC50 equal or less than 10 uM are considered active; format: functional; settings: read-out: AC50
# Cytochrome P450 2C19, sequence (P33261 whole entry): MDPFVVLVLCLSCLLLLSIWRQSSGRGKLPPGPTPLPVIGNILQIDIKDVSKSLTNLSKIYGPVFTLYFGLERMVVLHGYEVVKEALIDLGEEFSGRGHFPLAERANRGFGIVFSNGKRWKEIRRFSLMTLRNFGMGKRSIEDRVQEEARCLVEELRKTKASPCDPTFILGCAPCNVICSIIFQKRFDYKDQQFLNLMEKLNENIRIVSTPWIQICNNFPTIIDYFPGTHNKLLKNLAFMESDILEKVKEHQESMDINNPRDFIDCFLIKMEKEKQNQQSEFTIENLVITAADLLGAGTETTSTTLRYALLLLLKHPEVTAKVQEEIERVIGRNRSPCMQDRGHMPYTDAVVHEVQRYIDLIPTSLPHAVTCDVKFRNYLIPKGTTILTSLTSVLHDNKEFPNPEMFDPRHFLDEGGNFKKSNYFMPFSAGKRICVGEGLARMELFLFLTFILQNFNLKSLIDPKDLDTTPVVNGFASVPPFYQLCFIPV
# [3] = target: T1, Cytochrome P450 3A4
# [4] = target: T2, Cytochrome P450 1A2 (Homo sapiens, UniProt P05177);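 note: PubChem cytochrome P450 panel assay, CYP1A2 panel member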
# T2 sequence (P05177 whole entry): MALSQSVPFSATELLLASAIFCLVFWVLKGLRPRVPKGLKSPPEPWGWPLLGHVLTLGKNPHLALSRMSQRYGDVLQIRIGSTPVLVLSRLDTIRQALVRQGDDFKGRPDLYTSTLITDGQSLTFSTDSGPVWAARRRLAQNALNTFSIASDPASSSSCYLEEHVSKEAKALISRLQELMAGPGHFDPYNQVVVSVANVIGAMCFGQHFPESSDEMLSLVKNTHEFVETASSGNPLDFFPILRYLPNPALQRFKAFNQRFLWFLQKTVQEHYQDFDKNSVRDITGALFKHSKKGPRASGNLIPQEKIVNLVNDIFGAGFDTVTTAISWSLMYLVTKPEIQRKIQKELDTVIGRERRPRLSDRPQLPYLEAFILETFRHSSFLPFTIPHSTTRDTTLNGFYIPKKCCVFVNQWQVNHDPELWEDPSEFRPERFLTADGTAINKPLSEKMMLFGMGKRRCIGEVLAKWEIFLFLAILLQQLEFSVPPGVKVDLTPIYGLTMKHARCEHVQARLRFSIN
# [5] = target: T3, Zinc finger protein mex-5 (Caenorhabditis elegans, UniProt Q9XUB2); assay: MEX-5/TCR-2 RNA interaction inhibitors, dose response, biochemical, C. elegans, fluorescence polarization (AID 1960)
# T3 sequence (Q9XUB2 whole entry): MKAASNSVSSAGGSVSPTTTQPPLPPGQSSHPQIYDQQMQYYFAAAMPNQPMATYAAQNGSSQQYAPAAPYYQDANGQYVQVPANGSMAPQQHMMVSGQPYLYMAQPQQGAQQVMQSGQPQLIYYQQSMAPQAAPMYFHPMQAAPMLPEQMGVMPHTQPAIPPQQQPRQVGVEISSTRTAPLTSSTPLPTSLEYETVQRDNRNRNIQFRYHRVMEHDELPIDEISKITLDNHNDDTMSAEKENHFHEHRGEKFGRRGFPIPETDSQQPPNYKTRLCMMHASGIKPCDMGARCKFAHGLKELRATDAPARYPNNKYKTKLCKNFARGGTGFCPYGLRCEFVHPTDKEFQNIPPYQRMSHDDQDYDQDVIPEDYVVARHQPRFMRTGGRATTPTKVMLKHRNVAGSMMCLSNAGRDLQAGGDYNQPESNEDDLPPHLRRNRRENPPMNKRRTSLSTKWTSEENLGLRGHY
# [6] = target: T4, RNA-binding protein pos-1 (Caenorhabditis elegans, UniProt G5EF15); assay: inhibitors of POS-1/mex-3 RNA binding, dose response, biochemical, fluorescence polarization (AID 1964);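 note: purified POS-1 fused to maltose binding protein made in E. coli; potency of compounds blocking POS-1 binding to fluorescent RNA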
# T4 sequence (G5EF15 whole entry): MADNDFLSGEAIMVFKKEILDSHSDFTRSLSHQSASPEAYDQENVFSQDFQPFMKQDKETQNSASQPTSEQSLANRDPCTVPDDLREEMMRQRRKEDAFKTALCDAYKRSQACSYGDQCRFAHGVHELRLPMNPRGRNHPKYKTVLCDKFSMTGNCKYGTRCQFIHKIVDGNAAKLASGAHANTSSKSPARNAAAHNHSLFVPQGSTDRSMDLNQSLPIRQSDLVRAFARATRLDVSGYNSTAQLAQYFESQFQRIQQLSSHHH
# [7] = cells; format: functional
# [8] = system: Vero; assay: cells; format: functional; settings: Chlorocebus sabaeus
# [9] = Luminescence Cell-Based Dose Retest to Confirm Inhibitors of Cancer Stem Cells. [Related pubchem assays (depositor defined):AID2717, AID2721]; format: functional; settings: Homo sapiens
# [10] = target: Large T antigen (Simian virus 40, UniProt P03070); format: functional, Betapolyomavirus macacae;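 note: Confirmatory-stage PubChem screen for compounds that inhibit SV40 T antigen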
# Large T antigen, sequence (P03070 whole entry): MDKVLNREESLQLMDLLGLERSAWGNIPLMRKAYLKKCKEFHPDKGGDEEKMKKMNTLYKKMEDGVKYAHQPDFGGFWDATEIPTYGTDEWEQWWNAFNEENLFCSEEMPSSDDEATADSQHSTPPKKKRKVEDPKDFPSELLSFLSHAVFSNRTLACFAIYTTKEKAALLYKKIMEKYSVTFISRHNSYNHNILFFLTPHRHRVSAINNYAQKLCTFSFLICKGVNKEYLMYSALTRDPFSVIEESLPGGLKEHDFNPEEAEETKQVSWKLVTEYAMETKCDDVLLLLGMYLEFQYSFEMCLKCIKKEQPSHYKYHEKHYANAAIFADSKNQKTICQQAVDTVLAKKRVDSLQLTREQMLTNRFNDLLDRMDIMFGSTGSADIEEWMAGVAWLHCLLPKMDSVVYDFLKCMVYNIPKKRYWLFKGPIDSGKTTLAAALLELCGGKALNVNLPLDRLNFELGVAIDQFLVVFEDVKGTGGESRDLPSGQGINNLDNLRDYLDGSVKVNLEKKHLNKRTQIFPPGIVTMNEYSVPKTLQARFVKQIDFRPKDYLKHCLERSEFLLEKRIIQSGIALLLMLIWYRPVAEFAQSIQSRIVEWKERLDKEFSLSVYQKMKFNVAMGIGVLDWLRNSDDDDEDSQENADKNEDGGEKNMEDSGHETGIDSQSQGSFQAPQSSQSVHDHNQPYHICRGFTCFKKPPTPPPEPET
# [11] = target: FAD-linked sulfhydryl oxidase ALR (Homo sapiens, UniProt P55789); assay: inhibitors of human ALR sulfhydryl oxidase, dose response, biochemical, H2O2 detection, luminescence, cherry-pick (AID 493248)
# FAD-linked sulfhydryl oxidase ALR, sequence (P55789 whole entry): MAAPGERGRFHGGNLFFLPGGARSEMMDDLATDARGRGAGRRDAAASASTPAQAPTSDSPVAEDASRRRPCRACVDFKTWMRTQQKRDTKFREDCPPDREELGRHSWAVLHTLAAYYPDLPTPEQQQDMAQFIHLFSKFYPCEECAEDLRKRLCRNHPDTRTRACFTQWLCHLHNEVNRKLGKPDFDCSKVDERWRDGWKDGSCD
# [12] = NIH-3T3 fibroblast cytotoxicity, dose response, cytotoxicity control, cell-based, fluorescence, Alamar Blue, secondary assay (AID 2327); format: functional;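 note: NIH-3T3 mouse fibroblasts cultured with fluconazole at 8 µg/mL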
# T1 sequence (P08684 whole entry): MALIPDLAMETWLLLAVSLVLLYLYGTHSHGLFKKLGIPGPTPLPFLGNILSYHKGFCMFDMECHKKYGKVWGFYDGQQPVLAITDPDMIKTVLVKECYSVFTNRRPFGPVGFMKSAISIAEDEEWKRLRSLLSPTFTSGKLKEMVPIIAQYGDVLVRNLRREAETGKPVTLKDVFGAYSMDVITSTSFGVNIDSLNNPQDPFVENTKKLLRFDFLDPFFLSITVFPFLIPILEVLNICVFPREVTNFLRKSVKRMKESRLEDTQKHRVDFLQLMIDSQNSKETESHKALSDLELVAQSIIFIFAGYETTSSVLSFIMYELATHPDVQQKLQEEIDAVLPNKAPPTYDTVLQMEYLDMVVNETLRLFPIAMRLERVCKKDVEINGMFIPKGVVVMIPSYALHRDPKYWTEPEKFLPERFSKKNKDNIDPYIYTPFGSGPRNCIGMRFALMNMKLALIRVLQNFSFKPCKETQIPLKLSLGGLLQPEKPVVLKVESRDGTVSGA
smiles,measurement,setting,value
CC(=O)NNC(=O)N1Cc2ccccc2Oc2ccc(Cl)cc21,AC50,[1],12.6 µM (inconclusive)
same,AC50,[2],5.01 µM (inconclusive)
same,AC50,[3],20 µM (inconclusive)
same,AC50,[4],31.6 µM (inconclusive)
O=C1N=C(Nc2ccccc2Cl)S/C1=C\c1cc([N+](=O)[O-])ccc1O,EC50,[5],> 300 µM (not active)
same,EC50,[6],10.9 µM (active)
O=C(NCCCN1CCOCC1)c1ccc(CSc2ccc(Cl)cc2)cc1,IC50,[7],34.3 µM (active)
same,CC50,[8],> 25 µM (active)
same,AC50,[9],1.25 µM (active)
CN1CCN(S(=O)(=O)c2ccc(N3CCN(c4ccc(O)cc4)CC3)c([N+](=O)[O-])c2)CC1,IC50,[10],8.6 µM (active)
same,AC50,[11],2.62 µM (active)
CCOC(=O)COn1c(=O)c(-c2cc3ccccc3o2)[n+]([O-])c2ccccc21,EC50,[5],27.6 µM (active)
same,EC50,[6],> 300 µM (not active)
N#Cc1ccc(C23CC4(C2)[C@H](CN(Cc2ccc(-c5ccccc5)cc2)[C@@H]4c2ccccc2)C3c2ccccc2)cc1 (some centres not stated),AC50,[1],15.8 µM (inconclusive)
O=c1c2cc(-c3ccccc3)sc2nc2n1N=C(c1ccccc1)CS2,CC50,[8],> 25 µM (active)
CC(NC(=O)Nc1ccccc1F)C(C)(C)C (configuration not stated),EC50,[12],> 160 µM (inconclusive)
CCCN1CCN(CCCNC(=O)c2cc3c(O)nc4ccc(C)cc4c3s2)CC1,CC50,[8],> 25 µM (active)
Cc1ccc2oc(=O)c3c4cc(O)c(O)c(C)c4oc3c2c1,AC50,[1],12.6 µM (inconclusive)
Cc1ccc(S(=O)(=O)NNc2nc3ccccc3nc2C(F)(F)F)cc1,EC50,[5],21.5 µM (inconclusive)
same,EC50,[6],39.8 µM (active)
CC1(OC(=O)CCc2ccccc2)C(=O)C=C2C=C(c3ccsc3)OC=C2C1=O (configuration not stated),EC50,[5],28.2 µM (active)
same,EC50,[6],49.7 µM (active)
